Measured values from patent US20250250303A1 (THE TRUSTEES OF COLUMBIA UNIVERSITY IN THE CITY OF NEW YORK, priority 2022, published 2025).
Bridge positions count the residues as written; N and C are the ends. Peptide text beside a SMILES is read from it.

Tests used:
IR [1] = biological target: IR (Homo sapiens, UniProt P06213); details: cited from earlier work
SREBP1 = experiment: Immunofluorescence assay for SREBP1 translocation in primary hepatocytes; assay type: cell-based, mouse; details: 100 nM for 30 min
Experimental: Primary hepatocytes were as described in the primary hepatocyte isolation section. […] Cells were fixed with 4% paraformaldehyde for 10 min. The fixed cells were incubated with PBS for 30 min and 3% BSA in PBS with 0.1% Triton X-100 (0.1% PBST) for 1 hr., and then treated with anti-SREBP1 antibodies (20B12, Millipore, Cat. #MABS1987, 1:200) in 3% BSA in 0.1% PBST at 4° C. overnight. After being washed, cells were incubated with secondary antibodies (Alexa Fluor 488 goat anti-rabbit, Invitrogen, Cat. #A11008, 1:200) for 1 hr. Cells were washed and mounted on microscope slides in ProLong Gold Antifade reagent with DAPI (Invitrogen). Images were acquired as a series of 0.2 μm stacks with a Leica Thunder Imager (Leica Microsystems Inc.). Raw images were deconvolved using LAS X Software (Leica Microsystems Inc.). The nuclear edges and the nuclear SREBP1 signal were defined with Image J. Identical exposure times and magnifications were used for all comparative analyses.

IR F96A = biological target: T1, IR F96A (Homo sapiens, UniProt P06213, F123A); experiment: IR activation assay in 293 FT cells, IR F96A mutant; assay type: cell-based; details: 10 nM for 10 min
T1 construct: expressed in transfected cells; host or cells: 293 FT cells

full-length IGF1R = experiment: In vitro competition assay for full-length IGF1R; assay type: binding
IR F701A/F705A = biological target: T2, IR F701A/F705A (Homo sapiens, UniProt P06213, F728A/F732A); experiment: IR activation assay in 293 FT cells, IR F701A/F705A mutant; assay type: cell-based; details: 10 min
T2 construct: expressed in transfected cells; host or cells: 293 FT cells

[2] = system: upstream MAPK pathway proteins (e.g., SOS1, SHP2); experiment: Quantitative phosphoproteomics of skeletal muscle; assay type: in vivo, mice; details: compared to insulin
Experimental: FIG. 6A illustrates sequences of S597 and analogs. […] Liver (3 min) and skeletal muscle (5 min) were collected after injection. Quantification of data shown in Mean±SD. […] Two-tailed student t-test; *p<0.05; **p<0.01; ***p<0.001; ****p<0.0001 (PBS set as the control); ††p<0.01 and ††††p<0.0001. […] Compared to insulin-treated samples, blue and red sites indicate downregulation and upregulation of phosphorylation by S597, respectively.

IR R14W = biological target: T3, IR R14W (Homo sapiens, UniProt P06213, R41W); experiment: IR activation assay in 293 FT cells, IR R14W mutant; assay type: cell-based; details: 10 min
T3 construct: expressed in transfected cells; host or cells: 293 FT cells

IR [3] = biological target: IR (Mus musculus, UniProt P15208); experiment: Insulin receptor endocytosis in vivo (liver sections); parameters: from tissue; host or cells: liver of C57BL/6J mice; species or system mice
Experimental: For IR endocytosis assays, the livers were fixed in 10% Neutral Buffered Formalin (NBF) and embedded in paraffin blocks. Sections were deparaffinized, subjected to immunohistochemistry as described in the immunohistochemistry section and previous study.
The immunohistochemistry was performed as described earlier with some modifications. Mouse tissues were fixed in 10% NBF and embedded in paraffin blocks by the Molecular Pathology Core at Columbia University. The deparaffinized sections were subjected to antigen retrieval with 10 mM sodium citrate (pH 6.0), incubated with 0.3% H2O2, blocked with 3% bovine serum albumin (BSA), and then incubated with anti-IR antibodies (CT-3, Millipore, Cat. #MABS65, 1:100) in 3% BSA in PBS with 0.1% Triton X-100 (0.1% PBST) at 4° C. overnight. The slides were washed and incubated with secondary antibodies (Alexa Fluor 568 donkey anti-mouse, Invitrogen, Cat. #A10037, 1:200). The washed slides were stained with 4′,6′-diamidino-2-phenylindole (DAPI). Ten images were randomly taken under x60 magnification with a Leica Thunder Imager (Leica Microsystems Inc.). Images of sections were acquired as series of 0.2 μm stacks. The cell edges were defined with Image J as described earlier. The whole cell signal intensity (WC) and intracell cellular intensity (IC) were measured. The plasma membrane signal intensity (PM) was calculated by subtracting IC from WC. […]

MCF7 = experiment: Cancer cell proliferation, MCF7; assay type: cell-based
CAL33 = experiment: IR signaling in cancer cells, CAL33; assay type: cell-based; details: 10, 100 or 300 nM for 10 minutes
[4] = biological target: insulin-like growth factor 1 receptor (IGF1R) (Homo sapiens, UniProt P08069); details: previous studies; cited from earlier work
Chain of insulin-like growth factor 1 receptor (IGF1R) (P08069 31-736 limits assumed, species assumed): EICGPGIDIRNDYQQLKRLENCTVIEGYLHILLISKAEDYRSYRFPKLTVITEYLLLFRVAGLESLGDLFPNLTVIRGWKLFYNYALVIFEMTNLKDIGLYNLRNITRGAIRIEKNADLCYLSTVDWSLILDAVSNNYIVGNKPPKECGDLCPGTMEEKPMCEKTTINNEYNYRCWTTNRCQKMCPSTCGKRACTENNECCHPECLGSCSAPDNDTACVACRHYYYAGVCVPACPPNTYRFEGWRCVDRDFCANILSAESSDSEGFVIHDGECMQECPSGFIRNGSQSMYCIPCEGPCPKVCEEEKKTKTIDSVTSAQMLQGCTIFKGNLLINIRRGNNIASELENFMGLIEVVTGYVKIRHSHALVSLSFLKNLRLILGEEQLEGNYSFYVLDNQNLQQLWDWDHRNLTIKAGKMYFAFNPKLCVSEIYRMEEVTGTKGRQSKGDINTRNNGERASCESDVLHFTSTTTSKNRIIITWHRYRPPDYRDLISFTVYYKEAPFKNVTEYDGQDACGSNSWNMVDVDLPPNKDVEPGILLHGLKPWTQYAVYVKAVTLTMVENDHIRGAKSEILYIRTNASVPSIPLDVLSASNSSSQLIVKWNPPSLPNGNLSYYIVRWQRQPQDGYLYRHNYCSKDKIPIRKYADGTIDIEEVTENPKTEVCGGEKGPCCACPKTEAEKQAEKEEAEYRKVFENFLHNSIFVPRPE

T2 sequence (P06213 28-1370 isoform P06213-2 F728A/F732A limits assumed): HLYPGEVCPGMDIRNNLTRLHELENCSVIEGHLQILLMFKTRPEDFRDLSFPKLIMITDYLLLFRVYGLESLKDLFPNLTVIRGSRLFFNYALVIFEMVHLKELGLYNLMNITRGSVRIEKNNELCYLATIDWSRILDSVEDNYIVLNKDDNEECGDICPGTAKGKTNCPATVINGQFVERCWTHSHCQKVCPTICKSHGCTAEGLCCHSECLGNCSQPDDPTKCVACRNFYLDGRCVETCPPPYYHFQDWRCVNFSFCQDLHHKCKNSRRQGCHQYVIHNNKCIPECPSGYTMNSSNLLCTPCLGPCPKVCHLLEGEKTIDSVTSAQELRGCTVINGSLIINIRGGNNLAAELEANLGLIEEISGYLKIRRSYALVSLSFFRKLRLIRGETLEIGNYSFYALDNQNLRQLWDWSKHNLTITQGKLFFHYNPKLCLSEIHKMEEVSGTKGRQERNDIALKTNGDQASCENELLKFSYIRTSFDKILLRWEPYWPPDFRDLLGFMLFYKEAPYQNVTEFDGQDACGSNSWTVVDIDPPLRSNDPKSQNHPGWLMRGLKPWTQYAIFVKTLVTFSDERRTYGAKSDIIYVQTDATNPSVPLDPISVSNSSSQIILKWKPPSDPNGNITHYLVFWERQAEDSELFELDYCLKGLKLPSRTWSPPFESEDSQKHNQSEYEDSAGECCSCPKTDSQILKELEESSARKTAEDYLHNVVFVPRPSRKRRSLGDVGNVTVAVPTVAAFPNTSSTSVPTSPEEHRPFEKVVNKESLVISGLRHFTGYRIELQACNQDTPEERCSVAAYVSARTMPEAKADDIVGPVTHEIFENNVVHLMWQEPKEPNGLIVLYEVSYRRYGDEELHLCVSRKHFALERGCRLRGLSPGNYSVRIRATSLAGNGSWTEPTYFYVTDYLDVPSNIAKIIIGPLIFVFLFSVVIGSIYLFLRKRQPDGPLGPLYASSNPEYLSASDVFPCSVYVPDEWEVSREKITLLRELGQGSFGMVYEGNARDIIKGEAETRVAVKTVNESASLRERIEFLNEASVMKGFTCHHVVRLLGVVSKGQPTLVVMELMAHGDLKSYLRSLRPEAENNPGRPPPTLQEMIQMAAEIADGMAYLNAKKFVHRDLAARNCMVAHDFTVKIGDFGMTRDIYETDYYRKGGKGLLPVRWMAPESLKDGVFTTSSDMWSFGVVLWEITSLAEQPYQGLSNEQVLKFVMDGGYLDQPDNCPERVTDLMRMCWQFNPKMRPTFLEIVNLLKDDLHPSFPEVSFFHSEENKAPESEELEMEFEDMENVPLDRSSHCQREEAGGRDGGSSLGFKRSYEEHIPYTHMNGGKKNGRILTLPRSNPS
T2 sequence (P06213 763-1382 partner limits assumed): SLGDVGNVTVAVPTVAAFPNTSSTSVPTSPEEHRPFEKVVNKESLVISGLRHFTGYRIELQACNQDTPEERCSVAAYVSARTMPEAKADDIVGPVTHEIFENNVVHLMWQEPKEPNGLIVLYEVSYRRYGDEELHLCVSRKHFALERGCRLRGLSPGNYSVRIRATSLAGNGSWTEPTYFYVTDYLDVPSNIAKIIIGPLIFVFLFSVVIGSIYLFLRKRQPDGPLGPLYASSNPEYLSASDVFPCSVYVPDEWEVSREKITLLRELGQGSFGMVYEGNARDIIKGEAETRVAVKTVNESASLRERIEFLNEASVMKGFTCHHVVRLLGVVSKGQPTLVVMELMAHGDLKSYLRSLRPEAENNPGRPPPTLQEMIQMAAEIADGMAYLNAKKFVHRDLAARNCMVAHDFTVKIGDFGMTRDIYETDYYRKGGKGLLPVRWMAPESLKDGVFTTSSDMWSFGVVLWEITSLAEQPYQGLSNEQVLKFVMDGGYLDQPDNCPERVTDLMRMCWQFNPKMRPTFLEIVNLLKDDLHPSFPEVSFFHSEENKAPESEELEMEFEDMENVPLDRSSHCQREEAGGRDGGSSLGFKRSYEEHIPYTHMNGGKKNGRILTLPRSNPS
T1 sequence (P06213 28-1370 isoform P06213-2 F123A limits assumed): as the sequence (P06213 28-1370 isoform P06213-2 F728A/F732A limits assumed) above, with F96A, A701F, A705F counted along it
T1 sequence (P06213 763-1382 partner limits assumed): as the sequence (P06213 763-1382 partner limits assumed) above

In the case of `CC[C@H](C)[C@H](NC(=O)[C@H](CCC(N)=O)NC(=O)[C@H](C)NC(=O)[C@H](Cc1c[nH]c2ccccc12)NC(=O)[C@H](CCC(=O)O)NC(=O)[C@H](CCC(=O)O)NC(=O)[C@H](CCC(=O)O)NC(=O)[C@H](CC(C)C)NC(=O)[C@H](CO)NC(C)=O)C(=O)N[C@@H](CCC(=O)O)C(=O)N[C@H]1CSSC[C@@H](C(=O)N2CCC[C@H]2C(=O)N[C@@H](CO)C(=O)N[C@@H](CCC(=O)O)C(=O)N[C@@H](CO)C(=O)N[C@@H](Cc2ccccc2)C(=O)N[C@@H](Cc2ccc(O)cc2)C(=O)N[C@@H](CC(=O)O)C(=O)N[C@@H](Cc2c[nH]c3ccccc23)C(=O)N[C@@H](Cc2ccccc2)C(=O)N[C@@H](CCC(=O)O)C(=O)N[C@@H](CCCNC(=N)N)C(=O)N[C@@H](CCC(N)=O)C(=O)N[C@@H](CC(C)C)C(N)=O)NC(=O)CNC(=O)[C@H](CCCNC(=N)N)NC(=O)CNC(=O)[C@H](Cc2ccc(O)cc2)NC(=O)[C@H](C(C)C)NC(=O)[C@H](CCC(=O)O)NC1=O` [S597] (Ac-SLEEEWAQIECEVYGRGCPSESFYDWFERQL-NH2; disulfide 11-18), the “affinity for the IR” value (IR [1]) is listed as “sub-micromolar”, the “nuclear translocation of SREBP1” value (SREBP1) is listed as “stimulated to the same level” and the “IR activation (pY IR)” value (IR F96A) is listed as “great deficiency”. For the same compound, the “binding to IGF1R” value (full-length IGF1R) was “do not bind”, the “IR activation (pY IR)” value (IR F701A/F705A) was “fully activated” and the “phosphorylation levels of upstream MAPK pathway proteins (e.g., SOS1, SHP2)” value [2] was “significantly reduced”. The “IR activation (pY IR)” value (IR R14W) was “fully activated”, the “IR endocytosis / internalization” value (IR [3]) was “promoted IR internalization” and the cell proliferation (MCF7) was “did not promote”. The IR signaling (CAL33) was “failed to activate” and the “activation of IGF1R” value [4] was “does not activate”.
